Experimental data as given in ChEMBL document CHEMBL4387706, “Discovery of Novel Spiroindoline Derivatives as Selective Tankyrase Inhibitors” (J Med Chem, 2019).
Activity calls are given as the source filed them. The rule behind the calls is not given here.

Key:
hERG (KCNH2) = hERG (KCNH2) (Homo sapiens, UniProt Q12809); assay: Displacement of [3H]dofetilide from full-length recombinant human ERG receptor expressed in HEK293 cells at 10 uM measured after 60 mins by scintillation counting method relative to control; type: cell-based; conditions: HEK293 cells expressing recombinant human ERG, probe [3H]dofetilide
[1] = biological target: Androgen receptor (Homo sapiens) (UniProt P10275); assay: Displacement of [3H]Methyltrienolone from human LNCAP cells-derived androgen receptor at 10 uM measured after 20 hrs by scintillation counting method relative to control; type: cell-based
[2] = biological target: Tyrosine-protein kinase Lck (Homo sapiens) (UniProt P06239); assay: Inhibition of full-length recombinant human LCK expressed in insect cells at 10 uM using poly(Glu:Tyr) as substrate preincubated for 15 mins followed by substrate addition and measured after 30 mins in presence of [gamma32P]ATP by scintillation counting method relative to control
[3] = Cmax in ICR mouse at 50 mg/kg, ip; type: ADME, organism-based; parameters: dose 50 mg/kg, route intraperitoneal; conditions: in vivo
[4] = biological target: Tankyrase 1/2 (Homo sapiens) (UniProt Q9H2K2+O95271); assay: Inhibition of TNKS/TNKS2-mediated beta-catenin signaling in human COLO320DM cells assessed as down regulation of TCF7 mRNA expression at 0.033 to 1 uM measured after 48 hrs by RT-PCR analysis; type: cell-based
[5] = biological target: Histamine H1 receptor (Homo sapiens) (UniProt P35367); assay: Displacement of [3H]pyrilamine from full-length recombinant human H1 receptor expressed in CHOK1 cells at 10 uM measured after 180 mins by scintillation counting method relative to control; type: cell-based
[6] = biological target: Mu-type opioid receptor (Homo sapiens) (UniProt P35372); assay: Displacement of [3H]diprenorphine from full-length recombinant human MOR expressed in CHOK1 cells at 10 uM measured after 60 mins by scintillation counting method relative to control; type: cell-based
[7] = biological target: Vasopressin V1a receptor (Homo sapiens) (UniProt P37288); assay: Displacement of [125I]Phenylacetyl-D-Tyr(Me)-Phe-Gln-Asn-Arg-Pro-Arg-Tyr-NH2 from full-length recombinant human V1A receptor expressed in HEK293 cells at 10 uM measured after 120 mins by scintillation counting method relative to control; type: cell-based
[8] = biological target: Muscarinic acetylcholine receptor M2 (Homo sapiens) (UniProt P08172); assay: Displacement of [3H]N-Methylscopolamine from full-length recombinant human M2 receptor expressed in CHOK1 cells at 10 uM measured after 120 mins by scintillation counting method relative to control; type: cell-based
Chain of Muscarinic acetylcholine receptor M2 (Homo sapiens) (P08172 whole entry): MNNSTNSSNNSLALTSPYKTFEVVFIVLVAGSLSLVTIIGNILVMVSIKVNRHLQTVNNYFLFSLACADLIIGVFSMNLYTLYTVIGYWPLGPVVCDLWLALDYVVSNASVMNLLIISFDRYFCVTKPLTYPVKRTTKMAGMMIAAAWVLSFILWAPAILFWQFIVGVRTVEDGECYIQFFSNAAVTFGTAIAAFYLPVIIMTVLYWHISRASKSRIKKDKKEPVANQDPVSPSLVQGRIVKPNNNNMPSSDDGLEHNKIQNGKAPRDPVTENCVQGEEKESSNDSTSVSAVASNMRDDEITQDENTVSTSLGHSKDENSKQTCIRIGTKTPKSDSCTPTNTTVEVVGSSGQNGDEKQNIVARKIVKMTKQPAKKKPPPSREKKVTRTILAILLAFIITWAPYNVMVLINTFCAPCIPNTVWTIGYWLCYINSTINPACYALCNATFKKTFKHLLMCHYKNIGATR

Chain of Tankyrase 1/2 (Homo sapiens) (O95271 whole entry, looked up): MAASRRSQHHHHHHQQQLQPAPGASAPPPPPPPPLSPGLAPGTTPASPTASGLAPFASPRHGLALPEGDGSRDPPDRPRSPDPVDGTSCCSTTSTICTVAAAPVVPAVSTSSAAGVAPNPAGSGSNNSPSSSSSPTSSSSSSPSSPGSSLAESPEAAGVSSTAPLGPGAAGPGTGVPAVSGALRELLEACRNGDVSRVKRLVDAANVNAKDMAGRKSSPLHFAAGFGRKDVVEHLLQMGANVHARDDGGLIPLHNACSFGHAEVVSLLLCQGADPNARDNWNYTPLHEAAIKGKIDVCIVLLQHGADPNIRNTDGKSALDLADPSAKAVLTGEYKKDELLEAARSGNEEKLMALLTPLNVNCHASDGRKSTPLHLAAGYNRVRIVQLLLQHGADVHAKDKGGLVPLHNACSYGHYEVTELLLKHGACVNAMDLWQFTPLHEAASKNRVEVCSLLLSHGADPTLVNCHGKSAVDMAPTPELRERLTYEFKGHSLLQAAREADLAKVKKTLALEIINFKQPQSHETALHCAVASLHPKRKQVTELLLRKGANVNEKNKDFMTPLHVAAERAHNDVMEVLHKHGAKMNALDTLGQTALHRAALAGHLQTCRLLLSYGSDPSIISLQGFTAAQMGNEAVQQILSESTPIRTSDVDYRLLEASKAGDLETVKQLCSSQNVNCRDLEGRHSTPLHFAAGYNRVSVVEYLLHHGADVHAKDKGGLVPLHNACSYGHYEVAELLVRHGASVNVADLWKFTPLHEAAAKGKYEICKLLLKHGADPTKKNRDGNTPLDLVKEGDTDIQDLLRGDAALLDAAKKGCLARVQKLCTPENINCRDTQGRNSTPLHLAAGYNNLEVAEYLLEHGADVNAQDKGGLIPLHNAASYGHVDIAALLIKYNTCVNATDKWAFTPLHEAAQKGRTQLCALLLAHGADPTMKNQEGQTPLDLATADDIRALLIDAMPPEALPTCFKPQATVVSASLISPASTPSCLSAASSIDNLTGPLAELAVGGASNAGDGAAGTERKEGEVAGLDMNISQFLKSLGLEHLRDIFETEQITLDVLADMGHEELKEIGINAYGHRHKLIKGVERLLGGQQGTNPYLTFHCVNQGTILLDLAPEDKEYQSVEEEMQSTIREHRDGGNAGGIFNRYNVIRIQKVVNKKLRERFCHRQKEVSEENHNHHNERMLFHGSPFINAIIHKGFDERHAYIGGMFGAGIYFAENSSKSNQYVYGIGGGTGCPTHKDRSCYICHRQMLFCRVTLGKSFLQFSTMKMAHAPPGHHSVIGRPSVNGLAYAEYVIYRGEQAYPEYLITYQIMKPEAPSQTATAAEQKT
Chain of Tankyrase 1/2 (Homo sapiens) (Q9H2K2 whole entry, looked up): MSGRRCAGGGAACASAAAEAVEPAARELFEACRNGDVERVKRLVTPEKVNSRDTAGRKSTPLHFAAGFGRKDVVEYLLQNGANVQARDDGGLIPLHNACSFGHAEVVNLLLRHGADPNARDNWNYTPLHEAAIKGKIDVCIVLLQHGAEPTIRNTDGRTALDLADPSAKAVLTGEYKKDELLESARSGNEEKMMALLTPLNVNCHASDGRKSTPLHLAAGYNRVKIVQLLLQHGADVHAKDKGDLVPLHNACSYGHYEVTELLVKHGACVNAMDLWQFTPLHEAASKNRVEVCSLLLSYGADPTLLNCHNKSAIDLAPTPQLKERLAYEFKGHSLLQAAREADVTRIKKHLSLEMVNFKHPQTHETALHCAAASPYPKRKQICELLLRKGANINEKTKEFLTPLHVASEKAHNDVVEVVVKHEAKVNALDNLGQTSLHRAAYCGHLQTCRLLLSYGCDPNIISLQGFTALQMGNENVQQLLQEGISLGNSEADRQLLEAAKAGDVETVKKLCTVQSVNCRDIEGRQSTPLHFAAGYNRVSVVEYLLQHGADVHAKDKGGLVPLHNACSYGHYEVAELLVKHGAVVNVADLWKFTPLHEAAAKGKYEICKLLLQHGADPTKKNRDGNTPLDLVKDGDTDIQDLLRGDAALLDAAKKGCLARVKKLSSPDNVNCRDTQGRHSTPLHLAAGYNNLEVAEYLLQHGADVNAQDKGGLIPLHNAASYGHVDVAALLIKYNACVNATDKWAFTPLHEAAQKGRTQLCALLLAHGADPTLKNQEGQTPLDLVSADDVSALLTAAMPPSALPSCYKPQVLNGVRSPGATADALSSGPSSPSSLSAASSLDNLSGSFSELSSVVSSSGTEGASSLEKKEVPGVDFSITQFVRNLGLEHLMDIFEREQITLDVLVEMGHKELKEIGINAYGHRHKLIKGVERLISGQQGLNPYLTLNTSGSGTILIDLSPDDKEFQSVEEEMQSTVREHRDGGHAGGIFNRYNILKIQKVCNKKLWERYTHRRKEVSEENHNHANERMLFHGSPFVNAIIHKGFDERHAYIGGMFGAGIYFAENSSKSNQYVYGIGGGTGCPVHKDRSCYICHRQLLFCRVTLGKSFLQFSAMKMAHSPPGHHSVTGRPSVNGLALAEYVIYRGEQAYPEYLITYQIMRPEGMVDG
Chain of Histamine H1 receptor (Homo sapiens) (P35367 whole entry): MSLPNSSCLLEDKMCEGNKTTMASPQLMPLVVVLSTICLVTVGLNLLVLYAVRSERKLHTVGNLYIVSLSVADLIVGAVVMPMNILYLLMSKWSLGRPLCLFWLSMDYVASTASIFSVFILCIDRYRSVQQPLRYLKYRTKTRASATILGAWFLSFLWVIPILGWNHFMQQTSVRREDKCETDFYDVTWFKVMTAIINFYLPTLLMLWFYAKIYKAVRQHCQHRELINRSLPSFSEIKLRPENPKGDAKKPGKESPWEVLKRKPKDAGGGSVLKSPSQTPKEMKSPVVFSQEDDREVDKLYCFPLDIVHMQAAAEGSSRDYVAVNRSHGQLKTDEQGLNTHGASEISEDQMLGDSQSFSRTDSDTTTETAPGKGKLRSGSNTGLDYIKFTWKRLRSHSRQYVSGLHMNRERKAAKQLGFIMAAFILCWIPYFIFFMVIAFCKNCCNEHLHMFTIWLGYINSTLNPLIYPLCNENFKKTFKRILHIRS
Chain of Tyrosine-protein kinase Lck (Homo sapiens) (P06239 2-509 limits assumed): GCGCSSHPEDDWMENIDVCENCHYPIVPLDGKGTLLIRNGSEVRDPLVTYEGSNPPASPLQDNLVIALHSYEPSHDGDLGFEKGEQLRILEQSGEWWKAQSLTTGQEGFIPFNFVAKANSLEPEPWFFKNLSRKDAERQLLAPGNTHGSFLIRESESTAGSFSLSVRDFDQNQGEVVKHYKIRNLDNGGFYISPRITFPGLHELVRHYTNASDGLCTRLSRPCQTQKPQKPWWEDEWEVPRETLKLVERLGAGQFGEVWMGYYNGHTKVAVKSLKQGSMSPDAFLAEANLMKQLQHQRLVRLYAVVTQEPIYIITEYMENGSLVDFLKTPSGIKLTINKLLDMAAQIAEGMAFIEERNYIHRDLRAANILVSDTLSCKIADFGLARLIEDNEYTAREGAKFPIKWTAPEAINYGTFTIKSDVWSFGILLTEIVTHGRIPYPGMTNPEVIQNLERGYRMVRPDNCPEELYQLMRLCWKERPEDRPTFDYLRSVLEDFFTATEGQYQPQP
Chain of Androgen receptor (Homo sapiens) (P10275 whole entry): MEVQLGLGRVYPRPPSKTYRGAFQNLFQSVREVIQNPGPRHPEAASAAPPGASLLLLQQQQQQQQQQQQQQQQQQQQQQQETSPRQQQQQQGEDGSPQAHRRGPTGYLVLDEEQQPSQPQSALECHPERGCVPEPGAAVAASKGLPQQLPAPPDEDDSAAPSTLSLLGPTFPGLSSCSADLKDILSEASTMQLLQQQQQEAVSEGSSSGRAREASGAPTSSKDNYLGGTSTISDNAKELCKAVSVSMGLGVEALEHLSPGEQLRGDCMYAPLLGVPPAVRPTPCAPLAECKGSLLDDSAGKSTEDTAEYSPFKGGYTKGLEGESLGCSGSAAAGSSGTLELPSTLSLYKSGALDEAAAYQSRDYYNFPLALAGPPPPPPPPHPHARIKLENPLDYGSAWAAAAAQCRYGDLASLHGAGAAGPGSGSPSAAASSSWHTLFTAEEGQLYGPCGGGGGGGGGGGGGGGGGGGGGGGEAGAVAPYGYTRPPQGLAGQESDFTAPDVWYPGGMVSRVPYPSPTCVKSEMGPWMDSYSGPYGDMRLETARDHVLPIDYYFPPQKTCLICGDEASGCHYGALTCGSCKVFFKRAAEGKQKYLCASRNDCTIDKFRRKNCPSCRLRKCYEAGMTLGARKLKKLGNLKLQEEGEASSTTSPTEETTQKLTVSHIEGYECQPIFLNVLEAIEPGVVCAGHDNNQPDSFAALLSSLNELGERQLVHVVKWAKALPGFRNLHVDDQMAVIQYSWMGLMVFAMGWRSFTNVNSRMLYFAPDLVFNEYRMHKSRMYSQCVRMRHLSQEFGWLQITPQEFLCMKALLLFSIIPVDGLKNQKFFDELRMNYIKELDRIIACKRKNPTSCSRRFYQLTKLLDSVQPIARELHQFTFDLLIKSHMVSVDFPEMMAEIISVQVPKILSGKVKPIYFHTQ

SMILES: O=c1[nH]c(N2CCC3(CC2)CN(CCO)c2cc(F)cc(F)c23)nc2c1CCCC2
- inhibition at 1 h, 10 µM (hERG (KCNH2)): > 20%
- inhibition [1]: > 20%
- inhibition [2]: > 20%
- Cmax [3]: 199 µM
- inhibition [4]: Active
- inhibition [5]: > 20%
- inhibition [6]: > 20%
- inhibition [7]: > 20%
- inhibition [8]: > 20%
